# Measured values reported in PubChem BioAssay (NCI).
#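 48-hour exposure; five concentrations; linearly interpolated endpoints. At the GI50, growth is halved. TGI is the concentration that stops growth completely.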
# Assays:
# Assay in all cases: NCI-60 cell line screen, 48 h
# [1] = system: MALME-3M melanoma
# [2] = system: MOLT-4 leukemia
# [3] = system: ACHN renal
# [4] = system: OVCAR-3 ovarian
# [5] = system: SR leukemia
# [6] = system: SNB-75 CNS
# [7] = system: HOP-62 NSCLC
# [8] = system: TK-10 renal
# [9] = system: NCI-H460 lung
# [10] = system: SF-539 CNS
SMILES,TGI [1],TGI [2],TGI [3],TGI [4],TGI [5],TGI [6],TGI [7],TGI [8],TGI [9],TGI [10],GI50 [10],GI50 [2],GI50 [3],GI50 [4],GI50 [5],GI50 [6],GI50 [7],GI50 [8],GI50 [9],GI50 [1]
CC(Cl)(/C=C/Cl)C(Cl)/C=C/C(Cl)(CCl)CBr (configuration not stated),13.7 µM,3.36 µM,18.1 µM,25.3 µM,2.07 µM,14.5 µM,42.8 µM,20.5 µM,15.4 µM,–,–,–,–,–,–,–,–,–,–,–
Cc1cc(C)nc(NS(=O)(=O)c2ccc(Nc3c4ccccc4nc4c(C(=O)Nc5ccc(S(N)(=O)=O)cc5)cccc34)cc2)n1,> 100 µM,> 100 µM,> 100 µM,> 100 µM,–,88.4 µM,> 100 µM,–,> 100 µM,> 100 µM,–,–,–,–,–,–,–,–,–,–
Cn1ncc2cc3c(Nc4ccc(Cl)cc4)cccc3nc21,56.3 µM,36.3 µM,72.5 µM,44 µM,–,> 100 µM,53 µM,> 100 µM,32 µM,–,–,–,–,–,–,–,–,–,–,–
O=C1C2=C(c3ccccc31)C(c1cccc(Cl)c1)NC(=S)N2 (configuration not stated),> 100 µM,> 100 µM,> 100 µM,> 100 µM,–,> 100 µM,> 100 µM,> 100 µM,> 100 µM,> 100 µM,–,–,–,–,–,–,–,–,–,–
CCOP(=O)(OCC)C1C(=O)O[C@H]2CCCC[C@@H]12 (some centres not stated),> 100 µM,> 100 µM,> 100 µM,> 100 µM,–,> 100 µM,> 100 µM,> 100 µM,> 100 µM,> 100 µM,–,–,–,–,–,–,–,–,–,–
CCOC(=O)c1cccc(=O)c(C(=O)OCC)c1,> 100 µM,> 100 µM,> 100 µM,> 100 µM,–,> 100 µM,> 100 µM,> 100 µM,> 100 µM,75.9 µM,–,–,–,–,–,–,–,–,–,–
CCCCCCC(=O)C/C(CCC(=O)N(Cc1ccccc1)Cc1ccccc1)=N\Nc1ccc([N+](=O)[O-])cc1[N+](=O)[O-],> 100 µM,–,> 100 µM,> 100 µM,–,> 100 µM,> 100 µM,> 100 µM,> 100 µM,> 100 µM,–,–,–,–,–,–,–,–,–,–
COc1cccc(NC(=O)c2sc3nc4c(cc3c2N)CCCC4)c1,–,> 100 µM,> 100 µM,2.38 µM,12.7 µM,2.77 µM,18.2 µM,34 µM,> 100 µM,12.8 µM,0.368 µM,0.765 µM,0.953 µM,0.329 µM,0.217 µM,0.271 µM,0.59 µM,2.97 µM,0.474 µM,–
COc1cc(C2C(Cl)C(=O)N2n2cnc3ccccc3c2=O)cc(OC)c1OC (configuration not stated),> 100 µM,> 100 µM,> 100 µM,> 100 µM,> 100 µM,> 100 µM,> 100 µM,> 100 µM,> 100 µM,–,–,–,–,–,–,–,–,–,–,–
COc1ccc(-c2oc3cc(O)c(OC)c(O)c3c(=O)c2OC2OC(CO)C(O)C(O)C2O)cc1 (configuration not stated),–,> 100 µM,> 100 µM,> 100 µM,–,> 100 µM,–,> 100 µM,> 100 µM,> 100 µM,–,–,–,–,–,–,–,–,–,–
N#Cc1ccccc1NC(=O)C(=O)C(C(=O)c1ccccc1-c1ccccc1)C1OC(=O)c2ccccc21 (configuration not stated),26.8 µM,70 µM,89.4 µM,32.7 µM,–,29.9 µM,25.1 µM,–,40.4 µM,22.7 µM,–,–,–,–,–,–,–,–,–,–
CC1(C)N=C(N)N=C(N)N1c1cccc(/C=C/C=C/c2cccc([N+](=O)[O-])c2)c1,–,23.6 µM,> 100 µM,13.1 µM,29.2 µM,21.5 µM,35.9 µM,–,15.3 µM,17.6 µM,4.43 µM,5.9 µM,75.7 µM,1.89 µM,4.71 µM,6.88 µM,18.1 µM,–,2.85 µM,–
FC(F)(F)P1C2C=CC(CC2)C1(F)F (configuration not stated),> 100 µM,> 100 µM,> 100 µM,–,–,> 100 µM,> 100 µM,> 100 µM,> 100 µM,> 100 µM,–,–,–,–,–,–,–,–,–,–
CCOC(=O)Cc1c(Cc2[nH]c(C(=O)OCc3ccccc3)c(CC(=O)OCC)c2CC(=O)OCC)[nH]c(C(=O)OCc2ccccc2)c1CC(=O)OCC,> 100 µM,> 100 µM,> 100 µM,> 100 µM,> 100 µM,> 100 µM,> 100 µM,–,–,> 100 µM,–,–,–,–,–,–,–,–,–,–
Cc1ccc(S(=O)(=O)N2CCCSCCSCCCSCC2)cc1,–,> 100 µM,–,> 100 µM,> 100 µM,> 100 µM,> 100 µM,> 100 µM,> 100 µM,> 100 µM,–,–,–,–,–,–,–,–,–,–
O=[N+]([O-])c1ccc(N/N=C\c2cc(Cl)ccc2O)nc1,20.5 µM,> 100 µM,39.4 µM,12.1 µM,–,21.3 µM,11.9 µM,23.6 µM,13.6 µM,> 100 µM,3.02 µM,0.51 µM,0.696 µM,0.42 µM,–,1.55 µM,1.96 µM,2 µM,1.66 µM,2.68 µM
CC(=O)Oc1c(C)n(CCCl)ccc1=O,> 100 µM,> 100 µM,> 100 µM,> 100 µM,> 100 µM,> 100 µM,> 100 µM,73.8 µM,> 100 µM,–,–,–,–,–,–,–,–,–,–,–
COC(=O)Nc1nc2ccc(C(=O)c3ccc[nH]3)cc2[nH]1,> 31.3 µM,> 100 µM,> 100 µM,–,–,1.69 µM,> 95.9 µM,> 93.6 µM,> 100 µM,42.3 µM,–,–,–,–,–,–,–,–,–,–
CCCCN(CCCC)C(=O)C(=O)CC(=O)c1ccc(Br)cc1,> 100 µM,> 100 µM,> 100 µM,> 100 µM,–,–,> 100 µM,> 100 µM,> 100 µM,> 100 µM,–,–,–,–,–,–,–,–,–,–
O/N=C1/C(=C/c2ccc(F)cc2)CCCC1C(NO)c1ccc(F)cc1 (configuration not stated),> 100 µM,55.3 µM,> 100 µM,72.8 µM,–,> 100 µM,> 100 µM,> 100 µM,> 100 µM,> 100 µM,–,–,–,–,–,–,–,–,–,–
CC(C)=CC(=O)CC(=O)C(=O)Nc1ccc(C)c(C)c1,> 100 µM,> 100 µM,> 100 µM,> 100 µM,> 100 µM,> 100 µM,–,> 100 µM,–,> 100 µM,–,–,–,–,–,–,–,–,–,–
